The source of these data is patent US4758566A, “2-(1-piperazinyl)-4-substituted phenylquinoline derivatives, processes for the preparation thereof, and pharmaceutical composition containing the same” (Dainippon Pharmaceutical Co., Ltd., priority 1984, dated 1988).

Experiment [1] concerns ulceration induced by exposure to stress (restraint and water immersion) in rats. As to the kind of experiment: Effect on the ulceration induced by exposure to stress (restraint and water immersion) in rats, Test 2. To be noted: for inhibition in vivo at 10 mg/kg / Ulcer index: stress-induced ulcer. Format: in vivo, rat (male Wistar). The protocol:
Effect on the ulceration induced by exposure to stress (restraint and water immersion) in rats The effect evaluated by this test is considered to be fairly well correlative to inhibitory effect on gastric acid secretion. Male Wistar rats weighing about 200 g were used in groups of 5 animals each. According to the method of Takagi et al. [cf. Japan. […] After 20 hours, the animals were taken out from the water bath and sacrificed under ether anesthesia, and the stomachs were removed. The stomach was inflated with 13 ml of physiological saline and placed in a 5% formalin solution for 5 minutes. After washing with physiological saline, the stomach was cut along the greater curvature and the length (mm) of each lesion in the glandular portion was measured using a dissecting microscope (×12). The sum of the length (mm) of each lesion in a stomach was indicated as an ulcer index. The inhibitory rate was determined by comparing the ulcer index in drug-treated groups with that in control group. Test compounds were administered orally 30 minutes before the immersion. In the control group, a vehicle (a 0.5% tragacanth solution) was administered orally.

For experiment [2], the system named is ulceration induced by ethanol in rats. The experiment in a line: Effect on the ulceration induced by ethanol in rats (gastric cytoprotection activity), Test 1. The following applies: for Ulcer index / inhibition in vivo at 10 mg/kg: ethanol-induced ulcer. In kind it is in vivo, rat (male Wistar). As for the experimental part: Effect on the ulceration induced by ethanol in rats (gastric cytoprotection activity) This test was carried out according to the method of Robert [cf. […] Male Wistar rats weighing 190 g to 200 g were fasted for 24 hours and then given orally 1 ml of absolute ethanol. After 1 hour, the animals were sacrificed under ether anesthesia, and the stomachs were removed and cut along the greater curvature. The length (mm) of each lesion in the glandular portion was measured using a dissecting microscope (×12). The sum of the length (mm) of each lesion in a stomach was indicated as an ulcer index. The inhibitory rate was determined by comparing the ulcer index in drug-treated groups with that in control group. Test compounds were administered orally 30 minutes before the administration of ethanol. In the control group, a vehicle (a 0.5% tragacanth solution) was administered orally.

For experiment [3], the system named is ulceration induced by pylorus-ligation (Shay ulcer) in rats. As to the kind of experiment: Effect on the ulceration induced by pylorus-ligation (Shay ulcer) in rats, Test 3. To be noted: Shay ulcer, rat; for Ulcer index: index of 0 to 5. In kind it is in vivo, rat (male Wistar). The protocol: Effect on the ulceration induced by pylorus-ligation (Shay ulcer) in rats […] The portion between pylorus and duodenum of each rat was ligated under ether anesthesia according to the method of Shay et al. […] Each of the animals was then allowed to stand abstained from food and water in a cage. After 18 hours, the animals were sacrificed under ether anesthesia, and the stomachs were removed and cut along the greater curvature. […] 0: no lesion 1: hemorrhage or erosion […] The inhibitory rate was determined by comparing the ulcer index in drug-treated groups with that in the control group. […] Test compounds were administered orally 30 minutes before the ligation. In the control group, a vehicle (a 0.5% tragacanth solution) was administered orally.

In experiment [4] the test system is hypothermia induced by reserpine. As to the kind of experiment: Antireserpine activity (antagonistic effect on hypothermia induced by reserpine), Test 4. Format: in vivo, mouse (male ddY). To be noted: mouse. The protocol: Antireserpine activity (antagonistic effect on hypothermia induced by reserpine)
This test was carried out according to the method of Askew [cf. Life Sci., 2, 725 (1963)].
Male ddY mice weighing 22 g to 27 g were used in groups of 5 animals each. Test compounds were administered orally to the animals, and immediately 5 mg/kg of reserpine was injected intraperitoneally. Rectal temperature of each mouse was measured 4 hours later with a thermistor (Shibaura Electric, BMG III-130). The inhibitory rate was determined by comparing the fall of rectal temperature in drug-treated groups with that in control group. In the control group, a vehicle (a 0.5% tragacanth solution) was administered orally.

The mark [5] stands for this setting: po, 20 h, rat, 10 mg/kg p.o., read-out: Inhibitory rate.
[6] abbreviates: po, 1 h, rat, 10 mg/kg p.o., read-out: Inhibitory rate.

Counter-ions that a name gives are not always drawn.

With `FC(F)(F)c1cccc(-c2cc(N3CCNCC3)nc3ccccc23)c1.O=C(O)/C=C\C(=O)O.O=C(O)/C=C\C(=O)O` [H, 2-(1-piperazinyl)-4-(3-trifluoromethylphenyl)quinoline dimaleate], the inhibition in vivo at 10 mg/kg in experiment [1] (setting [5]) came to 4.3%; in experiment [2] (setting [6]), 84.3%. Moreover, the Ulcer index in experiment [1] (rat, 10 mg/kg p.o.) stood at 24.7 ± 3.6 mm; in experiment [2] (rat, 10 mg/kg p.o.), 7.1 ± 1.9 mm.

On to `CN/C(=N/CCSCc1nc[nH]c1C)NC#N` [Cimetidine, reference compound], for which the inhibition in vivo at 20 mg/kg in experiment [1] (Rattus norvegicus, po, 20 h, read-out: Inhibitory rate) stood at 39.1%. Also, the “preventive effect on the stress-induced ulceration (in words)” value in experiment [1] (rat, 20 mg/kg p.o.) was “did not exhibit any significant effect”. For the same molecule, the Ulcer index in experiment [1] (rat, 20 mg/kg p.o.) is 15.1 ± 2.9 mm; in experiment [2] (rat, 100 mg/kg p.o.) it was 23.9 ± 8.2 mm; in experiment [3] (50 mg/kg p.o.) it was 3.3 ± 0.3; in experiment [3] (100 mg/kg p.o.), 3 ± 0.5; in experiment [3] (200 mg/kg p.o.), 1.9 ± 0.4; in experiment [3] (500 mg/kg p.o.) it was 0.8 ± 0.2. Moreover, in experiment [2] (Rattus norvegicus, po, 1 h, read-out: Inhibitory rate), the inhibition in vivo at 100 mg/kg was determined as 25.1%. Further, the “protective effect on the ethanol-induced ulceration (in words)” value in experiment [2] (rat, 100 mg/kg p.o.) is listed as “did not exhibit any significant protective effect”. Also, the Inhibitory rate in experiment [3] (50 mg/kg p.o.) was 0%; in experiment [3] (100 mg/kg p.o.), 9.1%; in experiment [3] (200 mg/kg p.o.), 42.4%; in experiment [3] (500 mg/kg p.o.) it was 75.8%.

For `CCN1CCN(c2cc(-c3ccc(Cl)cc3)c3ccccc3n2)CC1.O=C(O)/C=C\C(=O)O.O=C(O)/C=C\C(=O)O` [D, 2-(4-ethyl-1-piperazinyl)-4-(4-chlorophenyl)quinoline dimaleate], the inhibition in vivo at 10 mg/kg in experiment [1] (setting [5]) came to 54%; in experiment [2] (setting [6]) it was 89%. In addition, the Ulcer index amounted to 13.4 ± 2.1 mm in experiment [1] (rat, 10 mg/kg p.o.) and 8.6 ± 4.5 mm in experiment [2] (rat, 10 mg/kg p.o.). Further, the Inhibitory rate in experiment [4] (100 mg/kg p.o.) worked out at 45.2%.

As for `CCN1CCN(c2cc(-c3cccc(C(F)(F)F)c3)c3ccccc3n2)CC1.O=C(O)/C=C\C(=O)O.O=C(O)/C=C\C(=O)O` [I, 2-(4-ethyl-1-piperazinyl)-4-(3-trifluoromethylphenyl)quinoline dimaleate], the inhibition in vivo at 10 mg/kg in experiment [1] (setting [5]) was 20.1%; in experiment [2] (setting [6]), 63.5%. Besides, the Ulcer index is 27.1 ± 2.2 mm in experiment [1] (rat, 10 mg/kg p.o.) and 16.5 ± 3.9 mm in experiment [2] (rat, 10 mg/kg p.o.).

Consider `Clc1ccc(-c2cc(N3CCNCC3)nc3ccccc23)cc1.O=C(O)/C=C\C(=O)O` [C, 2-(1-piperazinyl)-4-(4-chlorophenyl)quinoline maleate], for which the figures for the inhibition in vivo at 10 mg/kg in experiment [1] (setting [5]) and in experiment [2] (setting [6]) were 65.6% and 87.4%, respectively. Moreover, the Ulcer index in experiment [1] (rat, 10 mg/kg p.o.) is recorded as 8.5 ± 2.9 mm; in experiment [2] (rat, 10 mg/kg p.o.), 4.5 ± 3.7 mm. Further, in experiment [4] (100 mg/kg p.o.), the Inhibitory rate was 64.3%.

Regarding `O=C(O)/C=C\C(=O)O.O=C(O)/C=C\C(=O)O.OCCN1CCN(c2cc(-c3ccc(Cl)cc3)c3ccccc3n2)CC1` [G, 2-[4-(2-hydroxyethyl)-1-piperazinyl]-4-(4-chlorophenyl)quinoline dimaleate], the values for the inhibition in vivo at 10 mg/kg in experiment [1] (setting [5]) and in experiment [2] (setting [6]) were 36.4% and 76.1%, respectively. For the same molecule, the Ulcer index is 18.5 ± 6.9 mm in experiment [1] (rat, 10 mg/kg p.o.) and 10.8 ± 6.3 mm in experiment [2] (rat, 10 mg/kg p.o.).

Take `O=C(O)/C=C\C(=O)O.O=C(O)/C=C\C(=O)O.OCCCN1CCN(c2cc(-c3ccc(F)cc3)c3ccccc3n2)CC1` [B, 2-[4-(3-hydroxypropyl)-1-piperazinyl]-4-(4-fluorophenyl)quinoline dimaleate]: the inhibition in vivo at 10 mg/kg is 61.7% in experiment [1] (setting [5]) and 69.2% in experiment [2] (setting [6]). For the same molecule, the Ulcer index in experiment [1] (rat, 10 mg/kg p.o.) amounted to 7.4 ± 1.2 mm; in experiment [2] (rat, 10 mg/kg p.o.), 21.9 ± 12.1 mm. The Inhibitory rate in experiment [4] (100 mg/kg p.o.) is reported as 59.4%.

For `O=C(O)/C=C\C(=O)O.O=C(O)/C=C\C(=O)O.OCCN1CCN(c2cc(-c3ccc(C(F)(F)F)cc3)c3ccccc3n2)CC1` [F, 2-[4-(2-hydroxyethyl)-1-piperazinyl]-4-(4-trifluoromethylphenyl)quinoline dimaleate], the inhibition in vivo at 10 mg/kg in experiment [1] (setting [5]) is 41.6%; in experiment [2] (setting [6]), 87.2%. In addition, the Ulcer index in experiment [1] (rat, 10 mg/kg p.o.) was 19.8 ± 2.0 mm; in experiment [2] (rat, 10 mg/kg p.o.), 6.7 ± 1.8 mm.

Regarding `O=C(O)/C=C\C(=O)O.O=C(O)/C=C\C(=O)O.OCCN1CCN(c2cc(-c3cccc(C(F)(F)F)c3)c3ccccc3n2)CC1` [J, 2-[4-(2-hydroxyethyl)-1-piperazinyl]-4-(3-trifluoromethylphenyl)quinoline dimaleate], the results for the inhibition in vivo at 10 mg/kg in experiment [1] (setting [5]) and in experiment [2] (setting [6]) were -2.7% and 74.8%, respectively. Besides, the Ulcer index in experiment [1] (rat, 10 mg/kg p.o.) is recorded as 34.8 ± 3.9 mm; in experiment [2] (rat, 10 mg/kg p.o.) it was 9.0 ± 4.2 mm.

For the molecule `CN(C)CCCN1c2ccccc2CCc2ccccc21` [Imipramine hydrochloride, reference compound], the results for the Inhibitory rate in experiment [4] (10 mg/kg p.o.), in experiment [4] (30 mg/kg p.o.) and in experiment [4] (100 mg/kg p.o.) were 29.5%, 69.3% and 94.5%, respectively.

Turning to `Cc1ccc(-c2cc(N3CCN(CCO)CC3)nc3ccccc23)cc1.O=C(O)/C=C\C(=O)O.O=C(O)/C=C\C(=O)O` [E, 2-[4-(2-hydroxyethyl)-1-piperazinyl]-4-(4-methylphenyl)quinoline dimaleate], the inhibition in vivo at 10 mg/kg in experiment [1] (setting [5]) is 69.7%; in experiment [2] (setting [6]) it was 64.4%. Moreover, the Ulcer index in experiment [1] (rat, 10 mg/kg p.o.) was 11.8 ± 4.6 mm; in experiment [2] (rat, 10 mg/kg p.o.), 12.0 ± 2.3 mm. The same molecule displayed an Inhibitory rate in experiment [4] (100 mg/kg p.o.) of 51.3%.
